# System: septic shock patients
# Assay: Phase IIa clinical trial with nangibotide in septic shock patients: SOFA score evolution
# Assay type: in vivo, human
# Method: This was a randomized, double-blind, two-stage, placebo-controlled study. As described in FIG. 7, the study was composed of 2 stages with a similar treatment regimen, in which 0.3, 1.0 or 3.0 mg/kg/h of nangibotide (corresponding to peptide LR12, having an amino acid sequence as set forth in SEQ ID NO: 9, also known as motrem) was tested versus placebo. All patients with a diagnosis of septic shock were considered for study participation. All potential study patients underwent standard care management procedures. Patients with evidence of septic shock according to the Sepsis-3 definition (Singer et al, JAMA 2016) were considered for inclusion (i.e., patients suffering from sepsis and having (i) persisting hypotension requiring vasopressors to maintain their mean arterial pressure ≥65 mm Hg and (ii) a serum lactate level >2 mmol/L (18 mg/dL) despite adequate volume resuscitation).
# After screening for eligibility, patients were randomized to one of the treatment arms. Then, they received either a 5 mg/kg loading dose of nangibotide over 15 minutes followed by a continuous intravenous (i.v.) infusion of nangibotide or a matching placebo on top of standard of care. Treatment with study drug was initiated as early as possible, but no later than 24 hours after the onset of septic shock, defined by the start of vasopressor therapy. Patients were treated until 12 (±2) hours after the resolution of their septic shock (defined as vasopressor withdrawal) with a maximum treatment duration of 5 days (120 hours).
# Adverse events (AEs) were coded using the MedDRA dictionary version 18.1. Treatment-emergent adverse events (TEAEs) were summarized and listed. Analysis was performed in 49 septic shock patients. The demographic and baseline characteristics were summarized in a descriptive fashion within each population: categorical variables were summarized by contingency tables (frequencies and percentages). sTREM-1 levels at day 1 were also described (mean, standard deviation, standard error, median, quartiles and range, minimum and maximum values). Mortality rates were reported by frequency and percentage. For continuous endpoints, i.e., the sequential organ failure assessment (SOFA), missing data were imputed using LOCF (Last Observation Carry-Forward). For time-to-event analyses, i.e., duration of invasive mechanical ventilation (IMV), duration of continuous renal replacement therapy (CRRT), survival, censored data techniques were utilized. In addition, a sensitivity analysis of time to event data (except survival) was performed using censoring at maximum limit for the corresponding observation period (i.e., either day 28 or day 90). […] The following comparisons were made: each nangibotide dose arm to placebo, all nangibotide doses combined versus placebo, and dose-response using an ordinal trend test. Exploratory composite endpoint: incidence (number and proportion) of patients alive at day 28 and free of vasopressor, free of IMV and free of CRRT were summarized by treatment and compared between treatments with a Fisher's exact test. For pharmacodynamic markers, log transformed data were represented as percentage change from baseline at day 5 or End of Infusion (EOI) if end of infusion was stopped before day 5. […] “All nangibotide” refers to analyses obtained by pooling data from 0.3, 1 and 3 mg/kg/h nangibotide-treated groups.
# [1] = patients with low sTREM-1 at baseline (below median 433 pg/mL), Day 3, 3.0 mg/kg/h
# [2] = patients with low sTREM-1 at baseline (below median 433 pg/mL), Day 3, all nangibotide doses pooled
# [3] = patients with low sTREM-1 at baseline (below median 433 pg/mL), Day 4, 0.3 mg/kg/h
# [4] = patients with low sTREM-1 at baseline (below median 433 pg/mL), Day 4, 1.0 mg/kg/h
# [5] = patients with low sTREM-1 at baseline (below median 433 pg/mL), Day 4, 3.0 mg/kg/h
# [6] = patients with low sTREM-1 at baseline (below median 433 pg/mL), Day 4, all nangibotide doses pooled
# [7] = patients with low sTREM-1 at baseline (below median 433 pg/mL), Day 5, 1.0 mg/kg/h
# [8] = whole population, Day 1, 0.3 mg/kg/h
# [9] = whole population, Day 1, 1.0 mg/kg/h
# [10] = whole population, Day 1, 3.0 mg/kg/h
# [11] = whole population, Day 1, all nangibotide doses pooled
# [12] = whole population, Day 2, 0.3 mg/kg/h
# [13] = whole population, Day 2, 1.0 mg/kg/h
# [14] = whole population, Day 2, 3.0 mg/kg/h
# [15] = whole population, Day 2, all nangibotide doses pooled
# [16] = whole population, Day 3, 0.3 mg/kg/h
# [17] = whole population, Day 3, 1.0 mg/kg/h
# [18] = whole population, Day 3, 3.0 mg/kg/h
# [19] = whole population, Day 3, all nangibotide doses pooled
# [20] = whole population, Day 4, 0.3 mg/kg/h
# [21] = whole population, Day 4, 1.0 mg/kg/h
# [22] = whole population, Day 4, 3.0 mg/kg/h
# [23] = whole population, Day 4, all nangibotide doses pooled
# [24] = whole population, Day 5, 1.0 mg/kg/h
substance,measurement,setting,value
nangibotide (LQEEDAGEYGCM; TLT-1 peptide),"SOFA score evolution (change versus baseline, LOCF), LSMean (SE)",[1],−2.10 (1.35)
same,"SOFA score, estimated difference (SE) vs. placebo",[1],0.01 (1.69)
same,"SOFA score evolution (change versus baseline, LOCF), LSMean (SE)",[2],−2.10 (0.67)
same,"SOFA score, estimated difference (SE) vs. placebo",[2],0.02 (1.23)
same,"SOFA score evolution (change versus baseline, LOCF), LSMean (SE)",[3],−2.70 (0.94)
same,"SOFA score, estimated difference (SE) vs. placebo",[3],−0.57 (1.32)
same,"SOFA score evolution (change versus baseline, LOCF), LSMean (SE)",[4],−1.79 (1.03)
same,"SOFA score, estimated difference (SE) vs. placebo",[4],0.34 (1.41)
same,"SOFA score evolution (change versus baseline, LOCF), LSMean (SE)",[5],−2.62 (1.24)
same,"SOFA score, estimated difference (SE) vs. placebo",[5],−0.49 (1.55)
same,"SOFA score evolution (change versus baseline, LOCF), LSMean (SE)",[6],−2.37 (0.62)
same,"SOFA score, estimated difference (SE) vs. placebo",[6],−0.24 (1.13)
same,"SOFA score evolution (change versus baseline, LOCF), LSMean (SE)","patients with low sTREM-1 at baseline (below median 433 pg/mL), Day 5, 0.3 mg/kg/h",−2.71 (1.10)
same,"SOFA score, estimated difference (SE) vs. placebo","patients with low sTREM-1 at baseline (below median 433 pg/mL), Day 5, 0.3 mg/kg/h, 0.3 mg/kg",−0.71 (1.56)
same,"SOFA score, estimated difference (SE) vs. placebo","patients with low sTREM-1 at baseline (below median 433 pg/mL), Day 5, 0.3 mg/kg/h, listed as nangibotide, 0.3 mg/kg",−0.71
same,"SOFA score evolution (change versus baseline, LOCF), LSMean (SE)",[7],−1.93 (1.21)
same,"SOFA score, estimated difference (SE) vs. placebo",[7],0.06 (1.65)
same,"SOFA score evolution (change versus baseline, LOCF), LSMean (SE)","patients with low sTREM-1 at baseline (below median 433 pg/mL), Day 5, 3.0 mg/kg/h",−1.87 (1.46)
same,"SOFA score, estimated difference (SE) vs. placebo","patients with low sTREM-1 at baseline (below median 433 pg/mL), Day 5, 3.0 mg/kg/h, 3 mg/kg",0.12 (−1.82)
same,"SOFA score, estimated difference (SE) vs. placebo","patients with low sTREM-1 at baseline (below median 433 pg/mL), Day 5, 3.0 mg/kg/h, listed as nangibotide, 3 mg/kg",0.12
same,"SOFA score evolution (change versus baseline, LOCF), LSMean (SE)","patients with low sTREM-1 at baseline (below median 433 pg/mL), Day 5, all nangibotide doses pooled",−2.17 (0.73)
same,"SOFA score evolution (change versus baseline, LOCF), LSMean (SE)",[8],−0.65 (0.52)
same,"SOFA score, estimated difference (SE) vs. placebo",[8],0.26 (0.75)
same,"SOFA score evolution (change versus baseline, LOCF), LSMean (SE)",[9],−0.39 (0.54)
same,"SOFA score, estimated difference (SE) vs. placebo",[9],0.53 (0.77)
same,"SOFA score evolution (change versus baseline, LOCF), LSMean (SE)",[10],−0.33 (0.54)
same,"SOFA score, estimated difference (SE) vs. placebo",[10],0.59 (0.76)
same,"SOFA score evolution (change versus baseline, LOCF), LSMean (SE)",[11],−0.45 (0.31)
same,"SOFA score, estimated difference (SE) vs. placebo",[11],0.46 (0.62)
same,"SOFA score evolution (change versus baseline, LOCF), LSMean (SE)",[12],−2.27 (0.63)
same,"SOFA score, estimated difference (SE) vs. placebo",[12],−0.94 (0.91)
same,"SOFA score evolution (change versus baseline, LOCF), LSMean (SE)",[13],−1.97 (0.65)
same,"SOFA score, estimated difference (SE) vs. placebo",[13],−0.64 (0.92)
same,"SOFA score evolution (change versus baseline, LOCF), LSMean (SE)",[14],−0.91 (0.65)
same,"SOFA score, estimated difference (SE) vs. placebo",[14],0.42 (0.92)
same,"SOFA score evolution (change versus baseline, LOCF), LSMean (SE)",[15],−1.72 (0.37)
same,"SOFA score, estimated difference (SE) vs. placebo",[15],−0.38 (0.75)
same,"SOFA score evolution (change versus baseline, LOCF), LSMean (SE)",[16],−2.67 (0.68)
same,"SOFA score, estimated difference (SE) vs. placebo",[16],−1.42 (0.98)
same,"SOFA score evolution (change versus baseline, LOCF), LSMean (SE)",[17],−1.87 (0.71)
same,"SOFA score, estimated difference (SE) vs. placebo",[17],−0.62 (1.00)
same,"SOFA score evolution (change versus baseline, LOCF), LSMean (SE)",[18],−0.91 (0.70)
same,"SOFA score, estimated difference (SE) vs. placebo",[18],0.34 (1.00)
same,"SOFA score evolution (change versus baseline, LOCF), LSMean (SE)",[19],−1.82 (0.40)
same,"SOFA score, estimated difference (SE) vs. placebo",[19],−0.57 (0.81)
same,"SOFA score evolution (change versus baseline, LOCF), LSMean (SE)",[20],−2.91 (0.67)
same,"SOFA score, estimated difference (SE) vs. placebo",[20],−1.50 (0.96)
same,"SOFA score evolution (change versus baseline, LOCF), LSMean (SE)",[21],−1.95 (0.70)
same,"SOFA score, estimated difference (SE) vs. placebo",[21],−0.53 (0.98)
same,"SOFA score evolution (change versus baseline, LOCF), LSMean (SE)",[22],−1.16 (0.69)
same,"SOFA score, estimated difference (SE) vs. placebo",[22],0.26 (0.98)
same,"SOFA score evolution (change versus baseline, LOCF), LSMean (SE)",[23],−2.00 (0.40)
same,"SOFA score, estimated difference (SE) vs. placebo",[23],−0.59 (0.80)
same,"SOFA score evolution (change versus baseline, LOCF), LSMean (SE)","whole population, Day 5, 0.3 mg/kg/h",−2.91 (0.71)
same,"SOFA score, estimated difference (SE) vs. placebo","whole population, Day 5, 0.3 mg/kg/h, 0.3 mg/kg",−1.66 (1.03)
same,"SOFA score, estimated difference (SE) vs. placebo","whole population, Day 5, 0.3 mg/kg/h, listed as nangibotide, 0.3 mg/kg",−1.66
same,"SOFA score evolution (change versus baseline, LOCF), LSMean (SE)",[24],−2.03 (0.74)
same,"SOFA score, estimated difference (SE) vs. placebo",[24],−0.78 (1.04)
same,"SOFA score evolution (change versus baseline, LOCF), LSMean (SE)","whole population, Day 5, 3.0 mg/kg/h",−0.90 (0.74)
same,"SOFA score, estimated difference (SE) vs. placebo","whole population, Day 5, 3.0 mg/kg/h, 3 mg/kg",0.34 (1.04)
same,"SOFA score, estimated difference (SE) vs. placebo","whole population, Day 5, 3.0 mg/kg/h, listed as nangibotide, 3 mg/kg",0.34
same,"SOFA score evolution (change versus baseline, LOCF), LSMean (SE)","whole population, Day 5, all nangibotide doses pooled",−1.95 (0.42)
same,SOFA score decrease during the first 5 days vs. placebo,"whole population, no statistically significant differences",consistent numerical trend in favor of nangibotide

# Source: US12364733B1, “Method for treating septic shock” (Inotrem, priority 2018, dated 2025)
